# Test results as given in patent US9359311B2, “Substituted aromatic oligomers” (NEUROSCIOS GMBH, priority 2011, dated 2016).
# Biological target: T1, biotinylated Aβ1-42 (Homo sapiens, UniProt P05067)
# T1 construct: To assure monomerisation of biotinylated Aβ1-42 (Anaspec #23523-0.5) the peptide was thoroughly monomerised; purchased Anaspec 23523-0.5
# Test: Inhibition of Abeta oligomerisation (biotinylated Aβ1-42, neutravidin plate, streptavidin-HRP)
# Format: biochemical
# Conditions: inhibition of Aβ1-42 aggregation, approximately 12 nM Aβ1-42, PBS pH 7.4, 2% DMSO, 30 min RT
# T1 sequence (P05067 672-713 limits assumed): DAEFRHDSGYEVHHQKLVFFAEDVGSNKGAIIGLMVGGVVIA
row,IC50 [µM],SMILES
1,0.398,"O=C(O)Cc1cc(Cl)sc1-c1ccc(-c2sc(-c3ccc(-c4cc(CC(=O)O)c(-c5ccc(-c6sc(Cl)cc6CC(=O)O)s5)s4)s3)cc2CC(=O)O)s1 [Example 58, 2-(2-{5-[3-(Carboxymethyl)-5-{5-[4-(carboxymethyl)-5-{5-[3-(carboxymethyl)-5-chlorothiophen-2-yl]thiophen-2-yl}thiophen-2-yl]thiophen-2-yl}thiophen-2-yl]thiophen-2-yl}-5-chlorothiophen-3-yl)acetic acid]"
2,0.794,"CS(=O)(=O)c1ccc(-c2cc(CCN)c(-c3ccc(-c4sc(-c5ccc(S(C)(=O)=O)cc5)cc4CCN)s3)s2)cc1 [Example 41, 2-(2-{5-[3-(2-Aminoethyl)-5-(4-methanesulfonylphenyl)thiophen-2-yl]thiophen-2-yl}-5-(4-methanesulfonylphenyl)thiophen-3-yl)ethan-1-amine]"
3,1.26,"O=C(O)Cc1cc(-c2ccc(-c3cc(CC(=O)O)c(-c4ccc(-c5ccc(C(=O)O)cc5)s4)s3)s2)sc1-c1ccc(-c2ccc(C(=O)O)cc2)s1 [Example 54, 4-{5-[3-(Carboxymethyl)-5-{5-[4-(carboxymethyl)-5-[5-(4-carboxyphenyl)thiophen-2-yl]thiophen-2-yl]thiophen-2-yl}thiophen-2-yl]thiophen-2-yl}benzoic acid]"
4,1,"Cc1ccc(-c2ccc(-c3cc(CC(=O)O)c(-c4ccc(-c5sc(-c6ccc(-c7ccc(C)cc7C(=O)O)s6)cc5CC(=O)O)s4)s3)s2)c(C(=O)O)c1 [Example 63, 2-{5-[5-(5-{5-[5-(2-Carboxy-4-methylphenyl)thiophen-2-yl]-3-(carboxymethyl)thiophen-2-yl}thiophen-2-yl)-4-(carboxymethy)thiophen-2-yl]thiophen-2-yl}-5-methylbenzoic acid]"
5,3.16,"CNS(=O)(=O)c1ccc(-c2cc(CC(=O)O)c(-c3ccc(-c4sc(-c5ccc(S(=O)(=O)NC)cc5)cc4CC(=O)O)s3)s2)cc1 [Example 23, 2-(2-{5-[3-(Carboxymethyl)-5-[4-(methylsulfamoyl)phenyl]thiophen-2-yl]thiophen-2-yl}-5-[4-(methylsulfamoyl)phenyl]thiophen-3-yl)acetic acid]"
6,12.6,"N#Cc1cccc(-c2cc(CC(=O)O)c(-c3ccc(-c4sc(-c5cccc(C#N)c5)cc4CC(=O)O)s3)s2)c1 [Example 83, 2-(2-{5-[3-(Carboxymethyl)-5-(3-cyanophenyl)thiophen-2-yl]thiophen-2-yl}-5-(3-cyanophenyl)thiophen-3-yl)acetic acid]"
7,1.26,"O=C(O)Cc1ccsc1-c1ccc(-c2sc(-c3ccc(-c4cc(CC(=O)O)c(-c5ccc(-c6sccc6CC(=O)O)cc5)s4)s3)cc2CC(=O)O)cc1 [Example 40, 2-(5-{5-[4-(Carboxymethyl)-5-{4-[3-(carboxymethyl)thiophen-2-yl]phenyl}thiophen-2-yl]thiophen-2-yl}-2-{4-[3-(carboxymethyl)thiophen-2-yl]phenyl}thiophen-3-yl)acetic acid]"
8,0.398,"O=C(O)Cc1cccc(-c2ccc(-c3cc(CC(=O)O)c(-c4ccc(-c5sc(-c6ccc(-c7cccc(CC(=O)O)c7)s6)cc5CC(=O)O)s4)s3)s2)c1 [Example 57, 2-(2-{5-[3-(Carboxymethyl)-5-{5-[3-(carboxymethyl)phenyl]thiophen-2-yl}thiophen-2-yl]thiophen-2-yl}-5-{5-[3-(carboxymethyl)phenyl]thiophen-2-yl}thiophen-3-yl)acetic acid]"
9,1.58,"O=C(O)Cc1cc(-c2cccs2)sc1-c1ccc(-c2sc(-c3ccc(C(=O)O)s3)cc2CC(=O)O)s1 [Example 12, 5-[4-(Carboxymethyl)-5-{5-[3-(carboxymethyl)-5-(thiophen-2-yl)thiophen-2-yl]thiophen-2-yl}thiophen-2-yl]thiophene-2-carboxylic acid]"
10,1.58,"O=C(O)Cc1ccsc1-c1ccc(-c2sc(-c3ccc(-c4cc(CC(=O)O)c(-c5ccc(-c6sccc6CC(=O)O)cc5)s4)cc3)cc2CC(=O)O)cc1 [Example 38, 2-(2-{4-[3-(Carboxymethyl)-5-{4-[4-(carboxymethyl)-5-{4-[3-(carboxymethyl)thiophen-2-yl]phenyl}thiophen-2-yl]phenyl}thiophen-2-yl]phenyl}thiophen-3-yl)acetic acid]"
11,10,"C[S+]([O-])c1cccc(-c2cc(CC(=O)O)c(-c3ccc(-c4sc(-c5cccc([S+](C)[O-])c5)cc4CC(=O)O)s3)s2)c1 (stereo not drawn) [Example 24, 2-(2-{5-[3-(Carboxymethyl)-5-(3-methanesulfinylphenyl)thiophen-2-yl]thiophen-2-yl}-5-(3-methanesulfinylphenyl)thiophen-3-yl)acetic acid]"
12,25.1,"O=C(O)Cc1ccc(-c2ccc(-c3ccc(CC(=O)O)s3)s2)s1 [Example 72, 2-(5-{5-[5-(Carboxymethyl)thiophen-2-yl]thiophen-2-yl}thiophen-2-yl)acetic acid]"
13,5.01,"O=C(O)Cc1cc(-c2ccc(C(=O)N3CCCC3)c(F)c2)sc1-c1ccc(-c2sc(-c3ccc(C(=O)N4CCCC4)c(F)c3)cc2CC(=O)O)s1 [Example 78, 2-(2-{5-[3-(Carboxymethyl)-5-[3-fluoro-4-(pyrrolidine-1-carbonyl)phenyl]thiophen-2-yl]thiophen-2-yl}-5-[3-fluoro-4-(pyrrolidine-1-carbonyl)phenyl]thiophen-3-yl)acetic acid]"
14,5.01,"O=C(O)Cc1cc(-c2cc(CC(=O)O)c(-c3ccc(-c4cccc(C(=O)O)c4)s3)s2)sc1-c1ccc(-c2cccc(C(=O)O)c2)s1 [Example 66, 3-{5-[3-(Carboxymethyl)-5-[4-(carboxymethyl)-5-[5-(3-carboxyphenyl)thiophen-2-yl]thiophen-2-yl]thiophen-2-yl]thiophen-2-yl}benzoic acid]"
15,2.51,"CS(=O)(=O)c1cccc(-c2cc(CC(=O)O)c(-c3ccc(-c4sc(-c5cccc(S(C)(=O)=O)c5)cc4CC(=O)O)s3)s2)c1 [Example 22, 2-(2-{5-[3-(Carboxymethyl)-5-(3-methanesulfonylphenyl)thiophen-2-yl]thiophen-2-yl}-5-(3-methanesulfonylphenyl)thiophen-3-yl)acetic acid]"
16,3.16,"COC(=O)c1ccc(-c2cc(CC(=O)O)c(-c3ccc(-c4sc(-c5ccc(C(=O)OC)s5)cc4CC(=O)O)s3)s2)s1 [Example 70, 2-(2-{5-[3-(Carboxymethyl)-5-[5-(methoxycarbonyl)thiophen-2-yl]thiophen-2-yl]thiophen-2-yl}-5-[5-(methoxycarbonyl)thiophen-2-yl]thiophen-3-yl)acetic acid]"
17,0.631,"O=C(O)Cc1cc(-c2ccc(-c3cc(CC(=O)O)c(-c4ccc(-c5cccc(C(=O)O)c5)s4)s3)s2)sc1-c1ccc(-c2cccc(C(=O)O)c2)s1 [Example 65, 3-{5-[3-(Carboxymethyl)-5-{5-[4-(carboxymethyl)-5-[5-(3-carboxyphenyl)thiophen-2-yl]thiophen-2-yl]thiophen-2-yl}thiophen-2-yl]thiophen-2-yl}thiophen-2-benzoic acid]"
18,50.1,"O=C(O)Cc1cc(-c2cccnc2)sc1-c1ccc(-c2sc(-c3cccnc3)cc2CC(=O)O)s1 [Example 15, 2-(2-{5-[3-(Carboxymethyl)-5-(pyridin-3-yl)thiophen-2-yl]thiophen-2-yl}-5-(pyridin-3-yl)thiophen-3-yl)acetic acid]"
